Reference: the NIST ThermoML archive (doi:10.1021/je300696c)
± gives the expanded uncertainty stated by the source.

Experiments:
[1] = Liquid; for mass density: 293.15 K, 101.33 kPa, Vibrating tube method
[2] = refractive index (Na D-line) (dimensionless); conditions: 293.15 K; 101.33 kPa; Liquid; Standard Abbe refractometry

| Compound | mass density [1] | vapor or sublimation pressure ([1]; 354.3 K, Ebulliometric method (Recirculating still)) | refractive index [2] | vapor or sublimation pressure ([1]; 350.21 K, Closed cell (Static) method) | vapor or sublimation pressure ([1]; 447.7 K, Ebulliometric method (Recirculating still)) | vapor or sublimation pressure ([1]; 447.74 K, Ebulliometric method (Recirculating still)) | vapor or sublimation pressure ([1]; 336.48 K, Closed cell (Static) method) | vapor or sublimation pressure ([1]; 369.09 K, Closed cell (Static) method) |
| --- | --- | --- | --- | --- | --- | --- | --- | --- |
| CC(C)(C)O [2-methylpropan-2-ol] | 788.5 ± 0.3 kg/m3 | 96.5 ± 4.8 kPa | 1.3878 ± 0.0008 | – | – | – | – | – |
| CCCCCCCO [heptan-1-ol] | 821.8 ± 0.3 kg/m3 | – | 1.4227 ± 0.001 | – | 96.5 ± 4.8 kPa | 96.5 ± 4.8 kPa | – | – |

More lines, now with the values ahead:

| mass density [1] | vapor or sublimation pressure ([1]; 354.3 K, Ebulliometric method (Recirculating still)) | refractive index [2] | vapor or sublimation pressure ([1]; 350.21 K, Closed cell (Static) method) | vapor or sublimation pressure ([1]; 447.7 K, Ebulliometric method (Recirculating still)) | vapor or sublimation pressure ([1]; 447.74 K, Ebulliometric method (Recirculating still)) | vapor or sublimation pressure ([1]; 336.48 K, Closed cell (Static) method) | vapor or sublimation pressure ([1]; 369.09 K, Closed cell (Static) method) | Compound |
| --- | --- | --- | --- | --- | --- | --- | --- | --- |
| 788.9 ± 0.3 kg/m3 | – | 1.3609 ± 0.0007 | 96.5 ± 4.8 kPa | – | – | – | – | CCO [ethanol] |
| 791.2 ± 0.3 kg/m3 | – | 1.3285 ± 0.0007 | – | – | – | 96.5 ± 4.8 kPa | – | CO [methanol] |
| 803.4 ± 0.3 kg/m3 | – | 1.3851 ± 0.0007 | – | – | – | – | 96.5 ± 4.8 kPa | CCCO [propan-1-ol] |
